These results are taken from article PMC8280112, “Substrate reduction therapy for Krabbe disease and metachromatic leukodystrophy using a novel ceramide galactosyltransferase inhibitor” (Scientific Reports, 2021).

One assay has as its target T1, Human CGT (Homo sapiens, UniProt Q16880).
T1 construct: made in house; host or cells: CHO cells expressing UGT8; crude M-PER lysate
T1 sequence (Q16880 21-541): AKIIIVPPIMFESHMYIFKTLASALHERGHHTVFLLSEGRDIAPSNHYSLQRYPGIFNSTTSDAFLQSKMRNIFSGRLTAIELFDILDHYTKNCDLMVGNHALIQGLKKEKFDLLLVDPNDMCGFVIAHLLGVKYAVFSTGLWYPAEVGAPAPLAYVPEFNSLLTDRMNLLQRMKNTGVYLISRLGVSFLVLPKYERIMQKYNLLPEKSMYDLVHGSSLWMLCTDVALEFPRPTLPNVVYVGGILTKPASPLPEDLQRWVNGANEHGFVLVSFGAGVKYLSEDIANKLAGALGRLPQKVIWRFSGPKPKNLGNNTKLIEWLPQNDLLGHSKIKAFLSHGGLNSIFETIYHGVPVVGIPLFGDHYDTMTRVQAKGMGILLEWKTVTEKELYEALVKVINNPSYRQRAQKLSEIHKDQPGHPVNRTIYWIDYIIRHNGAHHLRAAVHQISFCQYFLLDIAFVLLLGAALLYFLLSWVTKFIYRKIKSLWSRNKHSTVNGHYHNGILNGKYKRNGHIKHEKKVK
Briefly: CGT enzyme assay (cell-lysate assay). Format: biochemical. The following applies: lysate of CHO cells expressing human UGT8. How it is done: Human CGT was obtained from a cell lysate from CHO cells expressing UGT8 (made by BioMarin) prepared in M-PER with proteinase inhibitors (Sigma). Compounds, serially diluted in DMSO and Tween 80, were added to 4 µg/well of CHO/CGT cell lysate to make 20 µL final reaction volume containing 0.5% DMSO and 0.01% Tween 80 in the reaction buffer consisting of 10 µM NDB-(2R-OH)-C6 ceramide (made by BioMarin), 17.5 µM UDP-Galactose (Sigma), 35 µM of dioleoylphosphatidylcholine (DOPC), 5 mM MgCl2, 5 mM MnCl2, 1% BSA, 15 mM KCl, 1 mM EGTA, 8 mM CHAPS, 10 mM HEPES–NaOH pH 7.2. The reaction was incubated at 37 °C for 1 h and stopped by adding 80 µL of methanol:acetonitrile (1:3) with 5 µM N-dodecanoyl-NBD-galactosylceramide (Matreya) internal standard (IS) for 30 min. 200 µL H2O:ACN (1:1) was added for 5 min and then centrifuged at 4000 rpm for 38 min at RT before quantifying NDB-(2R-OH)-C6-galactosylceramide (BioMarin) by LC–MS on a Rapid Fire 360 mass spectrometer (Agilent) coupled with a API4000 + MS in electrospray ionization (ESI) negative mode (Applied Biosystems). These assay conditions were used to screen the Bio-active lipid library (Cayman Cat# 10506).

Assay [1] addresses T2, Glucosylceramide synthase (GCS) (Canis lupus familiaris, UniProt A0A8I3MXG6).
T2 construct: endogenous in cells; host or cells: MDCK cell lysate
T2 sequence (A0A8I3MXG6 1-394): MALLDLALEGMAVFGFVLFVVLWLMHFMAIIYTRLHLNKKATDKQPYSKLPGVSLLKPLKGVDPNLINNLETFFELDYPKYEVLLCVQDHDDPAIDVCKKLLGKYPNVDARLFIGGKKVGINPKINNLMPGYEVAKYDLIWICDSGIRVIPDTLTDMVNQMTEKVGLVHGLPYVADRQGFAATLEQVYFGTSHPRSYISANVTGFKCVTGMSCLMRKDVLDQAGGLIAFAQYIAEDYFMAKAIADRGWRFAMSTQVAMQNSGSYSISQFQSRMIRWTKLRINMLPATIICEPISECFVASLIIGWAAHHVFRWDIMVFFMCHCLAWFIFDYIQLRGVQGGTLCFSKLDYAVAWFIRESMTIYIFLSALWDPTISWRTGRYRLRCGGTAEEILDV
The experiment in a line: Glucosylceramide synthase assay. In kind it is biochemical. The settings on record: MDCK cell lysate. How it is done: Modified from Larsen et al.[46]. Briefly, 60 μg of MDCK cell lysate was incubated with […] in 100 mM Tris buffer (pH 7.5), 10 mM MgCl2, 1 mM dithiothreitol, 1 mM EGTA, 2 mM NAD, 100 μM UDP-glucose, 10 μM C6-NBD-Ceramide (Matreya), 35 μM DOPC, and 5 μM sulfatide (Sigma) at 37 °C for 1 h. The reaction was stopped with equal volume of acetonitrile and 50 μL was added to 100 μL of acetonitrile containing 100 ng/mL tolbutamide IS and centrifuged. Next, 70 μL of supernatant was mixed with 140 μL H2O before LC-MS analysis. NBD-Glucosylceramide quantification was performed on a Shimadzu ultra-fast liquid chromatography system (Shimadzu) coupled with an API 4000 triple quadrupole mass spectrometer in ESI positive mode (Applied Biosystems) and a Xbridge BEH130 CI 8, 100 mm × 4.6 mm i.d, 3.5 μm column (Waters). The mobile phase consisted of water and acetonitrile supplemented with 0.1% formic acid (v/v).

In another assay the test system is Twitcher mice. The experiment in a line: Twitcher mouse brain immunostaining and cytokine analysis. Format: in vivo. The following applies: 0.15 mg/kg IP three times per week, PND3 to PND28.
The subject of assay [2] is sulfatide and lysosulfatide levels. Briefly: ARSA knockout (MLD) mouse brain sulfatide and lysosulfatide analysis. Format: in vivo. The settings on record: MLD (ARSA knockout) mice, IP three times per week. How it is done: ARSA mice were obtained from Volkmar Gieselmann, University of Bonn. ARSA −/− mice were generated from heterozygous pairing and confirmed by PCR genotyping. […] Animals were euthanized by exsanguination under deep anesthesia and brain and sciatic nerve removed, rinsed in cold saline, dried, and snap frozen for lipid quantification.
Previously diluted brain homogenate was serially diluted (10 µL into 90 µL and then 20 µL into 80 µL) in ACN/H2O (v/v 1:1) before being added to 300 µL ACN with IS (N-C18:0-CD3-sulfatide, Matreya). The mixture was vortexed for 10 min, centrifuged at 5800 rpm for 10 min, and then 3 µL of supernatant was injected for LC–MS/MS analysis. Sulfatides were separated on an ACE 5 C18 (2.1 × 50 mm, 5 µm) column (0.6 mL/min flow rate) at 60 °C using mobile phase A (H2O-5 mM NH4OAc) and mobile phase B (ACN). Non-hydroxy-sulfatide and 2-hydroxy-sulfatide were detected using MRM on a UPLC-MS/MS-22 (Triple Quad 6500) in positive ESI mode. Total sulfatides (Matreya) were used as reference standards. The non-hydroxy-sulfatide or 2-hydroxy-sulfatide species identified in the reference standards were each summed and normalized relative to the vehicle treated animals.
Sulfatides were quantified using the methods described above. For lysosulfatide, 30 µL of brain homogenates were added to 200 µL ACN with IS (N-acetylsulfatide, Matreya), vortexed for 10 min, and centrifuged at 5800 rpm for 10 min. 3 µL of supernatant was injected for LC–MS/MS analysis. UPLC–MS/MS methods were the same used for sulfatides described above except lysosulfatide (Matreya) was used as a reference standard.

Method for Twitcher mice: Five sections from a one in four series of sagittal brain sections from each mouse were stained on slides using a modified immunofluorescence protocol for the following antibodies—astrocytes (rabbit anti-GFAP, 1:1000, DAKO Z0334), microglia (rat anti-mouse CD68, 1:400, Bio-Rad MCA1957), and myelin basic protein (MBP) (rat anti-MBP, 1:500, Merck Millipore MAB386). Briefly, 40 µm sagittal sections were mounted on Superfrost Plus slides (Fisher Scientific), air-dried for 30 min, and blocked in 15% normal goat serum solution (Vector Labs, S-1000) in 2% TBS-T (1 × Tris Buffered Saline, pH 7.6 with 2% Triton-X100, Fisher Scientific) for 1 h. Slides were then incubated in primary antibody in 10% serum solution in 2% TBS-T for 2 h. Slides were washed three times in 1×TBS and incubated in fluorescent Alexa-Fluor labelled IgG secondary antibodies (Alexa-Fluor goat anti-rabbit 488, Invitrogen A-11008 and goat anti-rat 546, Invitrogen A-11081) in 10% serum solution in 2% TBS-T for 2 h, washed three times in 1×TBS, and incubated in a 1 × solution of TrueBlack lipofuscin autofluorescence quencher (Biotium, Fremont, CA, #23,007) in 70% ethanol for 2 min before rinsing in 1×TBS. Slides were coverslipped in fluoromount-G mounting medium with DAPI (Southern Biotech). To analyze the glial activation (GFAP-positive astrocytes + CD68-positive microglia) as well as MBP staining of punctate bodies in the cerebellar white matter, a semiautomated thresholding image analysis method was used with Image-Pro Premier software (Media Cybernetics). Briefly, this involved the collection of slide-scanned images at 5 × magnification for a one in four series of 3 sections per animal followed by demarcation of all regions (in this case the white matter of the cerebellum) of interest while maintaining the lamp intensity, video camera setup, and calibration constant throughout image capturing. Images were subsequently analyzed using Image-Pro Premier using an appropriate threshold that selected the foreground immunoreactivity above background. This threshold was then applied as a constant to all subsequent images analyzed per batch of animals and reagent used to determine the specific area of immunoreactivity for each antigen. Image densitometry for the average pixel luminance data was also gathered for MBP staining of the cerebellar white matter due to the higher density of staining. Slide-scanned images at 5 × magnification were collected for a one in forty-eight series of sections per animal followed by collecting the mean luminance data across all pixels from the regions of interest delineated using Image-Pro Premier.
Cytokine/chemokine analyses were performed on the brains from the same animals used for immunofluorescent imaging. […]

On to `C[C@H]1N(c2ccc(Br)cc2)C(=O)N(c2ccc(Br)cc2)C1(O)c1cccc(OC(F)(F)F)c1` (stereo partly drawn) [S202], for which the IC50 (usually the concentration at which inhibition is half-maximal) at Human CGT was found to be 15 nM. The molecule also registered an IC50 in assay [1] of over 50000 nM. Moreover, in the assay on Twitcher mice, the “CD68-positive macrophages in brain sections” value is on record as “trend toward reduction”, the “GROA level in brain homogenates” value is listed as “reduced the levels”, the “MCP-1 level in brain homogenates” value is reported as “reduced the levels” and the “marker of astrocytosis (GFAP) in brain sections” value was “trend toward reduction”. Also, in assay [2] (higher doses), the 2-hydroxy-sulfatides in brain entry was “reduced”. For the same molecule, in assay [2] (lower doses), the lysosulfatide in brain result is reported as “reduction” and the non-hydroxy-sulfatide in brain entry is on record as “reduction”.
